Results published in patent publication US20250171499A1, “PHARMACEUTICAL FORMULATIONS AND METHODS FOR THE TREATMENT OF METABOLIC AND LIVER DISORDERS” (Viking Therapeutics, Inc., priority 2022, published 2025).

How the values were obtained:
[1] = molecular target: T1, GIP receptor (Homo sapiens, UniProt P48546); assay: Binding assay in the presence or absence of 2% human serum albumin, GIP receptor; conditions: IC50 with 2% HSA to IC50 with 0% HSA
T1 sequence (P48546 22-466): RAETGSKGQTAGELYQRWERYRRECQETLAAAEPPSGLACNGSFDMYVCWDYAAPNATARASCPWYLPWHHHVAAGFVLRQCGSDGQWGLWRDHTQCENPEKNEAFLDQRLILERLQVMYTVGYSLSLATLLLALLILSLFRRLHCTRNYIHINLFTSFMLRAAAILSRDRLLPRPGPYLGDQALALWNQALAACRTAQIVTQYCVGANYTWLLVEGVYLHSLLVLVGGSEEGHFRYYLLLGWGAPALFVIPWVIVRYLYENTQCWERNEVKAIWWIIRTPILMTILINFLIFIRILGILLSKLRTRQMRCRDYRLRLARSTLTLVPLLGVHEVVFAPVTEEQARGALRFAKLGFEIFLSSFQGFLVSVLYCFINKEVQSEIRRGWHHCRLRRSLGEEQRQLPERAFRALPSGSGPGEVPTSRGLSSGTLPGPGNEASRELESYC

[2] = molecular target: GLP-1 receptor (Homo sapiens, UniProt P43220); conditions: IC50 with 2% HSA to IC50 with 0% HSA
[3] = Pharmacokinetics study of formulations, subcutaneous dosing; type: in vivo; conditions: Formulation 2; SC 0.2 mg/kg; male cynomolgus monkeys
Method: Formulation 1 included the compound in a vehicle of 0.1% bovine serum albumin in phosphate buffered saline solution. […] Samples were obtained at 1, 4, 8, 12, 24, 48, 72, 96, 120, 168, 192, 240 and 336 hours after the single dose was administered.

GLP-1 receptor, sequence (P43220 24-463, species assumed): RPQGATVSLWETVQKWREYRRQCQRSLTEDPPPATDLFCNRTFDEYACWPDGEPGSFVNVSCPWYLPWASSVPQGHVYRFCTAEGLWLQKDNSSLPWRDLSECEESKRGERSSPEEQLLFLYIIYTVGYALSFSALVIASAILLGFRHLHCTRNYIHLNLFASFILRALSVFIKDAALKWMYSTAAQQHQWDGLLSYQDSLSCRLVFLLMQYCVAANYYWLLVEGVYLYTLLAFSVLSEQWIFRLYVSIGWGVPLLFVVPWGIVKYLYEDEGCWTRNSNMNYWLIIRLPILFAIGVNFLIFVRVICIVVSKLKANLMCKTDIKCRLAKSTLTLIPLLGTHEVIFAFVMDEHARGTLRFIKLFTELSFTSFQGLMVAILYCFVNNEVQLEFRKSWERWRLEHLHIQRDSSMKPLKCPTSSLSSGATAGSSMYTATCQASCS

With `CC[C@H](C)[C@H](NC(=O)[C@H](CC(C)C)NC(=O)[C@H](Cc1c[nH]c2ccccc12)NC(=O)[C@H](CCC(N)=O)NC(=O)[C@@H](NC(=O)[C@H](Cc1ccccc1)NC(=O)[C@H](C)NC(=O)[C@H](CCCCNC(=O)COCCOCCNC(=O)COCCOCCNC(=O)CC[C@H](NC(=O)CCCCCCCCCCCCCCCCCCP(=O)(O)O)C(=O)O)NC(=O)[C@H](CCC(N)=O)NC(=O)[C@H](C)NC(=O)[C@@H](NC(=O)[C@H](CCCCN)NC(=O)[C@H](CC(=O)O)NC(=O)[C@H](CC(C)C)NC(=O)C(C)(C)NC(=O)[C@@H](NC(=O)[C@H](CO)NC(=O)[C@H](Cc1ccc(O)cc1)NC(=O)[C@H](CC(=O)O)NC(=O)[C@H](CO)NC(=O)[C@@H](NC(=O)[C@H](Cc1ccccc1)NC(=O)[C@@H](NC(=O)CNC(=O)[C@H](CCC(=O)O)NC(=O)C(C)(C)NC(=O)[C@@H](N)Cc1ccc(O)cc1)[C@@H](C)O)[C@@H](C)O)[C@@H](C)CC)[C@@H](C)CC)C(C)C)C(=O)N[C@@H](C)C(=O)NCC(=O)NCC(=O)N1CCC[C@H]1C(=O)N[C@@H](CO)C(=O)N[C@@H](CO)C(=O)NCC(=O)N[C@@H](C)C(=O)N1CCC[C@H]1C(=O)N1CCC[C@H]1C(=O)N1CCC[C@H]1C(=O)N[C@@H](CO)C(N)=O` [Compound 4] the “GIP receptor Ratio of HSA:No HSA” value [1] was 1.25, the “GLP-1 receptor Ratio of HSA:No HSA” value [2] was 6.42 and the “mean half life compared to tirzepatide” value [3] was “twice as long”.
